# How the values were obtained:
# IGROV-1 = assay: Growth inhibition of human IGROV1 cells after 48 hrs by sulforhodamine B assay; format: functional; details: IGROV-1, 48 h
# MDA-MB-468 = assay: Growth inhibition of human MDA-MB-468 cells after 48 hrs by sulforhodamine B assay; format: functional, cell-based; details: MDA-MB-468, 48 h
# T47D [1] = assay: Growth inhibition of human T47D cells assessed as cell growth at 10 uM after 48 hrs by sulforhodamine B assay; format: functional; details: read-out: Activity
# HOP-62 = assay: Growth inhibition of human HOP62 cells after 48 hrs by sulforhodamine B assay; format: functional; details: HOP-62, 48 h
# COLO 205 = assay: Growth inhibition of human COLO205 cells after 48 hrs by sulforhodamine B assay; format: functional; details: COLO 205, 48 h
# DU-145 = assay: Growth inhibition of human DU145 cells assessed as cell growth at 10 uM after 48 hrs by sulforhodamine B assay; format: functional; details: DU-145, 48 h, read-out: Activity
# ACHN = assay: Growth inhibition of human ACHN cells assessed as cell growth at 10 uM after 48 hrs by sulforhodamine B assay; format: functional; details: read-out: Activity
# UACC-62 = assay: Growth inhibition of human UACC62 cells assessed as cell growth at 10 uM after 48 hrs by sulforhodamine B assay; format: functional; details: UACC-62, 48 h, read-out: Activity
# K562 [2] = assay: Growth inhibition of human K562 cells after 48 hrs by sulforhodamine B assay; format: functional; details: K562, 48 h
# SK-MEL-28 = assay: Growth inhibition of human SK-MEL-28 cells after 48 hrs by sulforhodamine B assay; format: functional; details: SK-MEL-28, 48 h
# UO-31 [3] = assay: Growth inhibition of human UO31 cells after 48 hrs by sulforhodamine B assay; format: functional; details: UO-31, 48 h
# SK-OV-3 = assay: Growth inhibition of human SKOV3 cells assessed as cell growth at 10 uM after 48 hrs by sulforhodamine B assay; format: functional; details: SK-OV-3, 48 h, read-out: Activity
# MDA-MB-435 [4] = assay: Growth inhibition of human MDA-MB-435 cells assessed as cell growth at 10 uM after 48 hrs by sulforhodamine B assay; format: functional; details: MDA-MB-435, 48 h, read-out: Activity
# MDA-MB-435 [5] = assay: Growth inhibition of human MDA-MB-435 cells after 48 hrs by sulforhodamine B assay; format: functional, cell-based; details: MDA-MB-435, 48 h
# T47D [6] = assay: Growth inhibition of human T47D cells after 48 hrs by sulforhodamine B assay; format: functional
# SF-295 = assay: Growth inhibition of human SF295 cells after 48 hrs by sulforhodamine B assay; format: functional, cell-based; details: SF-295, 48 h
# UO-31 [7] = assay: Growth inhibition of human UO31 cells assessed as cell growth at 10 uM after 48 hrs by sulforhodamine B assay; format: functional; details: UO-31, 48 h, read-out: Activity
# OVCAR-8 = assay: Growth inhibition of human OVCAR8 cells assessed as cell growth at 10 uM after 48 hrs by sulforhodamine B assay; format: functional; details: OVCAR-8, 48 h, read-out: Activity
# A498 = assay: Growth inhibition of human A498 cells assessed as cell growth at 10 uM after 48 hrs by sulforhodamine B assay; format: functional; details: A498, 48 h, read-out: Activity
# SNB-19 = assay: Growth inhibition of human SNB19 cells assessed as cell growth at 10 uM after 48 hrs by sulforhodamine B assay; format: functional; details: SNB-19, 48 h, read-out: Activity
# [8] = Growth inhibition of human HCC2998 cells after 48 hrs by sulforhodamine B assay; format: functional; details: HCC 2998, 48 h
# OVCAR-4 = assay: Growth inhibition of human OVCAR4 cells assessed as cell growth at 10 uM after 48 hrs by sulforhodamine B assay; format: functional; details: OVCAR-4, 48 h, read-out: Activity
# MDA-MB-231 [9] = assay: Growth inhibition of human MDA-MB-231 cells after 48 hrs by sulforhodamine B assay; format: functional; details: MDA-MB-231, 48 h
# 786-0 [10] = assay: Growth inhibition of human 786-0 cells assessed as cell growth at 10 uM after 48 hrs by sulforhodamine B assay; format: functional; details: 786-0, 48 h, read-out: Activity
# M14 = assay: Growth inhibition of human M14 cells assessed as cell growth at 10 uM after 48 hrs by sulforhodamine B assay; format: functional; details: M14, 48 h, read-out: Activity
# [11] = Growth inhibition of human Hs 578T cells assessed as cell growth at 10 uM after 48 hrs by sulforhodamine B assay; format: functional; details: read-out: Activity
# LOX IMVI = assay: Growth inhibition of human LOXIMVI cells after 48 hrs by sulforhodamine B assay; format: functional
# NCI-H322M = assay: Growth inhibition of human NCI-H322M cells assessed as cell growth at 10 uM after 48 hrs by sulforhodamine B assay; format: functional; details: read-out: Activity
# HCT-15 = assay: Growth inhibition of human HCT15 cells after 48 hrs by sulforhodamine B assay; format: functional; details: HCT-15, 48 h
# K562 [12] = assay: Growth inhibition of human K562 cells assessed as cell growth at 10 uM after 48 hrs by sulforhodamine B assay; format: functional; details: K562, 48 h, read-out: Activity
# HL-60(TB) = assay: Growth inhibition of human HL-60(TB) cells after 48 hrs by sulforhodamine B assay; format: functional; details: HL-60, 48 h
# MDA-MB-231 [13] = assay: Growth inhibition of human MDA-MB-231 cells assessed as cell growth at 10 uM after 48 hrs by sulforhodamine B assay; format: functional; details: MDA-MB-231, 48 h, read-out: Activity
# 786-0 [14] = assay: Growth inhibition of human 786-0 cells after 48 hrs by sulforhodamine B assay; format: functional; details: 786-0, 48 h
# RPMI-8226 = assay: Growth inhibition of human RPMI8226 cells after 48 hrs by sulforhodamine B assay; format: functional, cell-based; details: RPMI-8226, 48 h
# [15] = read-out: LC50 (the source's name)
smiles,measurement,setting,value
COc1cc(-c2nn(-c3cccc(NC(=O)c4cccc(C(F)(F)F)c4)c3)cc2-c2ccncc2)ccc1Cl,GI50,IGROV-1,1830 nM
same,LC50 (concentration killing 50% of cells),IGROV-1,> 50000 nM
same,TGI,IGROV-1,> 50000 nM
same,GI50,MDA-MB-468,1320 nM
same,IC50,MDA-MB-468,1320 nM
same,TGI,MDA-MB-468,4560 nM
same,CC50,MDA-MB-468; [15],> 50000 nM
same,growth at 10 µM,T47D [1],29%
same,TGI,HOP-62,> 50000 nM
same,CC50,HOP-62; [15],> 50000 nM
same,GI50,COLO 205,1640 nM
same,LC50 (concentration killing 50% of cells),COLO 205,24800 nM
same,TGI,COLO 205,5170 nM
same,growth at 10 µM,DU-145,2.16%
same,growth at 10 µM,ACHN,31.6%
same,growth at 10 µM,UACC-62,27.2%
same,GI50,K562 [2],1400 nM
same,TGI,K562 [2],> 50000 nM
same,CC50,K562 [2]; [15],> 50000 nM
same,GI50,SK-MEL-28,2490 nM
same,LC50,SK-MEL-28,> 50000 nM
same,TGI,SK-MEL-28,> 50000 nM
same,GI50,UO-31 [3],968 nM
same,TGI,UO-31 [3],> 50000 nM
same,CC50,UO-31 [3]; [15],> 50000 nM
same,growth at 10 µM,SK-OV-3,7.18%
same,growth at 10 µM,MDA-MB-435 [4],-39.6%
same,GI50,MDA-MB-435 [5],705 nM
same,IC50,MDA-MB-435 [5],710 nM
same,TGI,MDA-MB-435 [5],1770 nM
same,GI50,T47D [6],2550 nM
same,TGI,T47D [6],> 50000 nM
same,CC50,T47D [6]; [15],> 50000 nM
same,GI50,SF-295,1020 nM
same,IC50,SF-295,1020 nM
same,TGI,SF-295,3000 nM
same,CC50,SF-295; [15],> 50000 nM
same,growth at 10 µM,UO-31 [7],25.1%
same,growth at 10 µM,OVCAR-8,11.8%
same,growth at 10 µM,A498,-19%
same,growth at 10 µM,SNB-19,47.3%
same,GI50,[8],2240 nM
same,TGI,[8],17600 nM
same,CC50,[8]; [15],> 50000 nM
same,growth at 10 µM,OVCAR-4,46.5%
same,GI50,MDA-MB-231 [9],1240 nM
same,LC50,MDA-MB-231 [9],> 50000 nM
same,TGI,MDA-MB-231 [9],9960 nM
same,growth at 10 µM,786-0 [10],29.8%
same,growth at 10 µM,M14,12.3%
same,growth at 10 µM,[11],-5.69%
same,GI50,LOX IMVI,1390 nM
same,LC50,LOX IMVI,> 50000 nM
same,TGI,LOX IMVI,> 50000 nM
same,growth at 10 µM,NCI-H322M,58.1%
same,GI50,HCT-15,1550 nM
same,LC50,HCT-15,> 50000 nM
same,TGI,HCT-15,> 50000 nM
same,growth at 10 µM,K562 [12],6.11%
same,GI50,HL-60(TB),2020 nM
same,TGI,HL-60(TB),> 50000 nM
same,CC50,HL-60(TB); [15],> 50000 nM
same,growth at 10 µM,MDA-MB-231 [13],4.67%
same,GI50,786-0 [14],2450 nM
same,TGI,786-0 [14],> 50000 nM
same,CC50,786-0 [14]; [15],> 50000 nM
same,GI50,RPMI-8226,1570 nM
same,IC50,RPMI-8226,1570 nM
same,TGI,RPMI-8226,26600 nM
same,CC50,RPMI-8226; [15],> 50000 nM
